Read-outs that look alike come from different tables or passages of the source.
How the values were obtained:
collagenase = assay: Effect of inhibiting collagenase expression; format: cell-based; details: Human fibroblasts, 10˜4M in serum-free DMEM, non-treated group taken as 100; for activity at 100 µM: Fibroblast
Description: The hydroxybenzamide compounds according to Examples 1˜8 were determined for their effects of inhibiting collagenase expression, and the results were compared to the effects obtained from resveratrol and tocopherol.
Human fibroblasts were introduced into a 96-well microtiter plate containing a DMEM (Dulbecco's Modified Eagle's Media) with 2.5% fetal bovine serum (FBS) in a cell count of 5,000 cells per well and cultured to a growth level of 90%. Then, the cultured product was further cultured in a serum-free DMEM medium for 24 hours. Next, the cultured product was treated with the hydroxybenzamide compounds according to Examples 18, resveratrol and tocopherol, dissolved in a serum-free DMEM medium at a concentration of 10˜4M, and then the cell culture was collected. The cell culture was evaluated for the production of collagenase by using a commercially available collagenase measuring system (Amersham Pharmacia, USA). First, the cell culture was introduced into a 96-well plate coated uniformly with primary collagenase antibodies, and then an antigen-antibody reaction was carried out in an incubator for 3 hours. After 3 hours, secondary collagenase antibodies, to which chromophores were bound, were introduced into the 96-well plate, and the reaction was further carried out for 15 minutes. After 15 minutes, a color developer was added thereto to develop a color at room temperature for 15 minutes, and 1M sulfuric acid was further added thereto to quench the reaction (color development). […] The yellow-colored 96-well plate was measured for absorptivity at 405 nm by using an absorption spectrometer, and a degree of collagenase synthesis was calculated according to the following Mathematical Formula 1. At this time, absorptivity of the cell culture in a non-treated group was used as a control.
Collagenase expression (%)=Absorptivity of the group treated with the corresponding sample/Absorptivity of the control×100 [Mathematical Formula 1]
The collagenase expression inhibiting activity was expressed based on the collagenase synthesis activity of the non-treated group, taken as 100.

[1] = Thermal stability according to isothermal discoloration test; format: physicochemical; set-up: key: 1: no discoloration; 2: discoloration into a light yellow color; 3: discoloration into a dark yellow color; 4: discoloration into a dark brown color; details: 1000 pm in dimethylformaldehyde:ethanol:water=5:3:2, 40° C., naked eyes
Description: The hydroxybenzamide compounds according to Examples 18 were determined for their thermal stability as compared to resveratrol.
The test was performed by dissolving each of the hydroxybenzamide compounds according to Examples 1˜8 into a test solvent (dimethylformaldehyde:ethanol:water=5:3:2) in a concentration of 1000 pm, and by allowing the test samples to be left in an isothermal chamber at 40° C. for a test period of 30, 60 and 90 days. Then, the test samples were observed by the naked eyes to determine discoloration degrees.
Discoloration of the samples was graded into Grade 1 Grade 4 as follows:
2: discoloration into a light yellow color
3: discoloration into a dark yellow color
4: discoloration into a dark brown color

[2] = tested on: Human keratinocyte HaCaT cell lines; assay: Anti-oxidative effect using HaCaT model (lipid peroxidation assay kit); format: cell-based; details: for activity at 100 µM: Homo sapiens, read-out: Lipid peroxidation (%)
Description: The hydroxybenzamide compounds prepared in Examples 1-8 were determined for their anti-oxidative effects.
Human keratinocyte HaCaT cell lines were pipetted into 60 mm dishes in a cell count of 1.0×10^6 cells per dish, and were cultured by using a DMEM (FBS 10%) medium containing penicillin/streptomycin added thereto under the conditions of 37° C./5% CO2 for 1 day. Then, the cultured product was treated with each of the hydroxybenzamide compounds according to Examples 1˜8 in a concentration of 10˜4 mol. Also, the same cultured product was treated with the same concentration of tocopherol and resveratrol for 24 hours. In addition to the above, the cultured product was treated with t-BHT (t-butyl hydroperoxide) and cultured under the conditions of 37° C./5% CO2 for 4 hours to obtain cells. The cells were subjected to lysis by repeating freezing/thawing cycles. The following Test procedure was based on the method described in the assay kit used in this example.
In this example, Calbiochem Lipid peroxidation assay kit (Cat. No. 437634) was used as a test reagent, and lipid peroxidation was determined by using the mechanism of formation of stable compounds at 586 nm from the reaction between the above reagent and ester peroxides linked to long-chain unsaturated fatty acids, such as malondialdehyde (MDA) and 4-hydroxyalkenal (4-hydroxy-2(E)-nonenal, 4-HNE).

procollagen type(I) = assay: Stimulation of collagen biosynthesis (procollagen type(I) ELISA); format: cell-based; details: Fibroblasts, 10 μM in serum-free medium, 24 hours, non-treated group taken as 100; for activity at 10 µM: Fibroblast
Description: The hydroxybenzamide compounds according to Examples 18 were determined for their effects of stimulating collagen biosynthesis, and the results were compared to the effects obtained from resveratrol and tocopherol.
Fibroblasts were seeded into a 24-well microtiter plate in a cell count of 10^5 cells per well and cultured to a growth level of 90%. The cultured product was further cultured in a serum-free DMEM medium for 24 hours. Next, the cultured product was treated with the hydroxybenzamide compounds according to Examples 1˜8, resveratrol and tocopherol, dissolved in a serum-free medium at a concentration of 10 μM, and then was cultured in a CO2 incubator for 24 hours. After decanting the supernatant, procollagen was determined by using a procollagen type(I) ELISA kit. The results are shown in the following Table 2, wherein the biosynthesis activity is expressed based on the biosynthesis activity of non-treated group, taken as 100.

[3] = HaCaT cells, sample at 10˜4 mol for 24 hours, then t-BHT 4 hours, non-treated group = 100

Row | Compound | activity at 100 µM (collagenase) | Discoloration after 30 days [1] | Discoloration after 60 days [1] | Discoloration After 90 days [1] | activity at 100 µM [2, 3] | activity at 10 µM (procollagen type(I)) | Collagenase expression (%) (collagenase) | Lipid peroxidation (%) [2, 3] | Collagen biosynthesis activity (%) (procollagen type(I)) | activity at 100 µM ([2]; HaCaT, 24 h)
1 | O=C(Nc1ccccc1O)c1cc(O)cc(O)c1 [Ex. 2, 3,5-dihydroxy-N-(2-hydroxyphenyl)benzamide] | 69% | 1 | 1 | 1 | 180% | 121% |  |  |  | 
2 | COc1ccc(NC(=O)c2cc(O)cc(O)c2)cc1O [Ex. 8, 3,5-dihydroxy-N-(3-hydroxy-4-methoxyphenyl)benzamide] | 69% | 1 | 1 | 1 | 181% | 120% |  |  |  | 
3 | O=C(Nc1cccc(O)c1)c1cc(O)cc(O)c1 [Ex. 3, 3,5-dihydroxy-N-(3-hydroxyphenyl)benzamide] | 71% | 1 | 1 | 1 | 182% | 122% |  |  |  | 
4 | Tocopherol [reference compound] |  |  |  |  |  |  | 95% | 250% | 113% | 
5 | COc1ccc(NC(=O)c2cc(O)cc(O)c2)cc1OC [Ex. 5, 3,5-dihydroxy-N-(3,4-dimethoxyphenyl)benzamide] | 72% | 1 | 1 | 1 | 176% | 115% |  |  |  | 
6 | O=C(Nc1ccc(O)cc1)c1cc(O)cc(O)c1 [Ex. 1, 3,5-dihydroxy-N-(4-hydroxyphenyl)benzamide] | 67% | 1 | 1 | 1 | 170% | 143% |  |  |  | 
7 | Oc1ccc(C=Cc2cc(O)cc(O)c2)cc1 [Resveratrol, reference compound] | 81% | 2 | 3 | 4 | 178% | 111% |  |  |  | 
8 | COc1ccc(NC(=O)c2cc(O)cc(O)c2)cc1 [Ex. 4, 3,5-dihydroxy-N-(4-methoxyphenyl)benzamide] | 74% | 1 | 1 | 1 | 186% | 118% |  |  |  | 
9 | COc1cc(NC(=O)c2cc(O)cc(O)c2)cc(OC)c1OC [Ex. 7, 3,5-dihydroxy-N-(3,4,5-trimethoxyphenyl)benzamide] | 70% | 1 | 1 | 1 | 179% | 119% |  |  |  | 
10 | COc1cc(NC(=O)c2cc(O)cc(O)c2)cc(OC)c1 [Ex. 6, 3,5-dihydroxy-N-(3,5-dimethoxyphenyl)benzamide] | 71% | 1 | 1 | 1 | 172% | 116% |  |  |  | 
11 | CC(C)(C)OO [t-BHT, t-butyl hydroperoxide, reference compound] |  |  |  |  |  |  |  |  |  | 320%

Source: US20080280989A1, “Hydroxybenzamide Derivatives, the Method For Preparing Thereof and the Cosmetic Composition Containing the Same” (priority 2005, published 2008)
